Assay results taken from US20250092014A1, “COMPOUNDS AND METHODS OF ACTIVATING LIPOPROTEIN LIPASE” (Metrea Biosciences, Inc., priority 2021, published 2025).

Key:
C57BL/6 mice = assay: Oral fat tolerance test (postprandial triglyceridaemia after olive oil bolus); assay type: in vivo; conditions: overnight-fasted C57BL/6 mice, compound IP 1 h before 10 mL/kg olive oil, bled at 1, 2 and 3.5 h
Method: To examine to effects of test compounds on postprandial triglycerdemia, 5-7 week old C57BL/6 mice were fasted overnight (18 hours) on non-nutritive bedding (Alpha-Dri). Following the overnight fast, the mice are bled via retro-orbital sinus (25 μL) using microcapillaries (t-1 hr sample). The LPL activator test compound was then administered intraperitoneally (IP) in a dose volume of 10 ml/kg. One hour later the mice were bled for the t=0 timepoint. The mice were then immediately dosed with a 10 mL/kg oral bolus of olive oil. The mice were subsequently bled at 1-, 2-, and 3.5-hours post-olive oil administration.
Whole blood samples were collected into tubes containing 0.125% EDTA solution in saline. Diluted plasma samples were analyzed for triglyceride levels using Infinity Triglyceride reagent (Thermo) on a microtiter plate. Briefly, 10 μL of diluted sample was added the plate. 200 μL of the reagent was added and the plate was incubated for 10 minutes at 37° C. The plate was then read at 550 nm on a Molecular Devices M5 Spectrophotometer (San Jose, CA). The concentration of triglycerides in the sample was determined using a standard curve made using a dilution of triglyceride standard (Sigma-Aldrich, St. Louis, MO) using the Softmax software from Molecular Devices. All graphing and subsequent area under-the-curve and statistical analysis (Student's t Test) is performed using GraphPad Prism (version 8.0, GraphPad Software, Inc., San Diego, CA).

[1] = molecular target: T1, LPL (native bovine milk protein) inactivated by ANGPTL4 (Bos taurus, UniProt P11151); assay: LPL ANGPTL4 protection assay (LPL fluorescence assay, resorufin butyrate substrate); assay type: biochemical; conditions: LPL activation activity, LPL 2.5 nM, ANGPTL4 20 nM
T1 construct: from tissue; host or cells: bovine milk (LPL); E. coli (GST-ANGPTL4)
T1 sequence (P11151 29-478): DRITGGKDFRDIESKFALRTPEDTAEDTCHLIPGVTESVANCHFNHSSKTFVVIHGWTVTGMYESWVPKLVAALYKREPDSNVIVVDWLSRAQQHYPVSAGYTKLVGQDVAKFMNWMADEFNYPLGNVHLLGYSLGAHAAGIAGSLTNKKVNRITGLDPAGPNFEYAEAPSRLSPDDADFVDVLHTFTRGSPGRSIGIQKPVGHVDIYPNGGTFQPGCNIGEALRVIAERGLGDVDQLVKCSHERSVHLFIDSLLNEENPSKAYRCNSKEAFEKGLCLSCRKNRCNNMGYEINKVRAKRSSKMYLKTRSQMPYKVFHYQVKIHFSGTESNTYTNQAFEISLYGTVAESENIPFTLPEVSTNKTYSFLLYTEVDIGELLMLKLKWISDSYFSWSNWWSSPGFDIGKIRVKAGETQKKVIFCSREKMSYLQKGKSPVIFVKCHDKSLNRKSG
Method: LPL is inactivated by angiopoietin-like 4 (ANGPTL4). Compounds of the present disclosure were for activity using the following protection assay. Briefly, the assay was performed in a black opaque 96-well microtiter plate with final volume of 100 μL using a buffer consisting of 50 mM HEPES (pH 7.2), 150 mM NaCl and 0.03% Triton X-100. Compounds were prepared as 10 mM stocks in DMSO, with subsequent serial dilutions performed in DMSO. Two microliters of test compounds were added to the microtiter plate, followed by 49-PL of LPL (native bovine milk protein affinity purified using heparin-affinity chromatography) in assay buffer. The plate contents were mixed using an orbital shaker and allowed to incubate for 5 minutes at room temperature. The enzymatic assay was initiated by the addition of a mixture of 49 μL of 50 μM resorufin butyrate (Santa Cruz #sc-208302; prepared from a 10 mM DMSO stock) and ANGPTL4 (N-terminal GST construct consisting of residues 26-164 expressed in E. coli) in assay buffer. The final concentrations of LPL and ANGPTL4 were 2.5 nM and 20 nM, respectively. The assay was allowed to proceed at 30° C. for 25 minutes with kinetic monitoring (Ex560/Em585) followed by an endpoint reading which was used for analysis.
Data was analyzed in Graphpad Prism (version 6.0, GraphPad Software, Inc., San Diego, CA) using a variable slope four parameter fit of the equation:
Y=Bottom+(Top-Bottom)/(1+10^((Log EC50−X)*HillSlope)),
where X is the concentration of test compound, Y corresponds to the amount of product expressed in relative fluorescence units, and Top and Bottom refer to the plateaus of the curve. Percent activation (protection) of test compound was calculated relative to zero effect wells (ZEW; LPL, ANGPTL4 and substrate) and maximum effect wells (MEW; LPL plus substrate): ((test well−ZEW)/(MEW−ZEW))*100.

SMILES | hypertriglyceridemia response to oral olive oil gavage (plasma triglycerides) (C57BL/6 mice) | EC50 [1] [µM]
Cc1ccc(NC(=O)c2cc(NC(=O)c3ccccc3C(=O)O)ccc2NC2CCCC2)cc1Cl [Compound 176, 2-((3-((3-chloro-4-methylphenyl)carbamoyl)-4-(cyclopentylamino)phenyl)carbamoyl)benzoic acid] | blunts hypertriglyceridemia response in a dose-dependent fashion | 5.74
Cn1c(C(=O)Nc2cc(C(=O)Nc3ccccc3CC(=O)O)ccc2N2CCCCC2)cc2ccccc21 [Compound 173, 2-(2-(3-(1-methyl-1H-indole-2-carboxamido)-4-(piperidin-1-yl)benzamido)phenyl)acetic acid] | blunts hypertriglyceridemia response in a dose-dependent fashion | 5.85
